From patent publication US10874683B2, “N4-hydroxycytidine and derivatives and anti-viral uses related thereto” (Emory University, priority 2016, dated 2020)
≈ marks a conversion by molar mass, not a printed value. Like-named read-outs stand apart in the source and are kept apart here.

Experiments:
SARS Coronavirus Orbani = assay: microbe, parasite or virus in culture; assay type: cell-based; settings: Severe acute respiratory syndrome coronavirus, Vero 76
in vitro = settings: African green monkey
[1] = Cytotoxicity in HG23 cells (Norovirus screen); assay type: cell-based; settings: human
Norovirus GT1 = Norovirus GT1 antiviral screening in HG23 cells; assay type: cell-based
[2] = rat, in vivo, po, 50 mg/kg
in vivo = settings: male, SD, rat, po, 50 mg/kg
[3] = Rodent pharmacokinetic experiment in DBA-1J mice; assay type: in vivo; settings: female, mouse, plasma, after IV dosing, read-out: plasma T1/2 (converted)
EEE virus = assay: organism not typed; assay type: cell-based; settings: Vero
[4] = Rodent pharmacokinetic experiment in DBA-1J mice; assay type: in vivo; settings: for concentration at 24 h: oral, read-out: 24 hr plasma levels
Description: DBA-1J mice (6-8 weeks old, female) were acclimated for ≥2 days after receipt. Mice were weighed the day before dosing to calculate dosing volumes. Mice were dosed by oral gavage with drug at 30 mg/kg, 100 mg/kg & 300 mg/kg. The mice were sampled at […] time points: 0.5, 1, 2, 3, 4, 8 and 24 hrs (3 mice per time point for test drug). The mice were euthanized and their organs were collected (see below). In order to collected blood, mice with euthanized by CO2 at the appropriate time point listed above. Blood was obtained by cardiac puncture (0.3 ml) at each time point. Following blood collection, the organs were removed from the mice (see below). The blood was processed by inverting Li-Heparin tube with blood gently 2 or 3 times to mix well. The tubes were then placed in a rack in ice water until able to centrifuge (≤1 hour). As soon as practical, the blood was centrifuged at ˜2000×g for 10 min in a refrigerated centrifuge to obtain plasma. Then, using a 200 μL pipette, the plasma was transferred to a labeled 1.5 ml Eppendorf tube in ice water. The plasma was then frozen in freezer or on dry ice. The samples were stored at −80° C. prior to analysis. Organs were collected from euthanized mice. The organs (lungs, liver, kidney, spleen and heart) were removed, placed in a tube, and immediately frozen in liquid nitrogen. The tubes were then transferred to dry ice. The samples were saved in cryogenic tissue vials. Samples were analyzed by LC-MS/MS using an ABSCIEX 5500 QTRAP LC-MS/MS system with a Hypercarb (PGC) column.

pestivirus, hepacivirus = settings: Stuyver et al., Antimicrob Agents Chemother 2003; cited from earlier work
VEE virus = assay: organism not typed; assay type: cell-based; settings: Vero
CEM cells = assay: Cytotoxicity profile, CEM cells; assay type: cell-based; settings: CEM cells (low of range)
[5] = Toxicology after 6 day q.d. intraperitoneal injections in mice; assay type: in vivo
Text: Alternatively, drug delivery by aerosol (nasal spray) administration may immediately achieve therapeutic levels of drug in the nasal mucosa and the brain.

WEE virus = assay: organism not typed; assay type: cell-based; settings: Vero
CHIK virus = assay: organism not typed; assay type: cell-based; settings: Vero
Ross River virus = assay: Vero cell cytopathic effect (CPE) model, Ross River virus; assay type: cell-based
Huh7 (liver) cells = assay: Cytotoxicity profile, Huh7 (liver) cells; assay type: cell-based; settings: Huh7 (liver) cells (high of range)
Chikungunya virus = Chikungunya virus (MOI 0.5) viral inhibition in U2OS cell line; assay type: cell-based; settings: for inhibition at 10 µM: read-out: Viral Inh. 10 uM; for inhibition at 50 µM: read-out: Viral Inh. 50 uM
U2OS cell line = assay: Cell viability, U2OS cell line (Chikungunya screen)
VEEV = assay: microbe, parasite or virus in culture; assay type: cell-based; settings: Venezuelan equine encephalitis virus, HeLa

Compound CCCCCCCCC(=O)ONc1ccn([C@@H]2O[C@H](CO)[C@H](O)C2O)c(=O)n1 (stereo partly shown) has an EC50 (SARS Coronavirus Orbani) of 0.19 µg/mL (≈ 0.476 µM) and a CC50 (in vitro) of 36 µg/mL (≈ 90.1 µM).
With CONc1ccn([C@@H]2O[C@H](CO)[C@H](O)C2O)c(=O)n1 (stereo partly shown) the EC50 (SARS Coronavirus Orbani) was greater than 100 µg/mL and the CC50 (in vitro) was greater than 100 µg/mL.
For CC1(O)[C@@H](O)[C@@H](CO)O[C@H]1n1ccc(NO)nc1=O (stereo partly shown), the CC50 [1] was greater than 100 µg/mL, the EC50 (Norovirus GT1) was greater than 100 µg/mL and the EC50 (SARS Coronavirus Orbani) was greater than 100 µg/mL. The CC50 (in vitro) was greater than 100 µg/mL.
In the case of O=c1nc(NO)ccn1[C@@H]1O[C@H](CO)[C@H](O)C1O (stereo in doubt) [EIDD-01931, 1-(3,4-dihydroxy-5-(hydroxymethyl)tetrahydrofuran-2-yl)-4-(hydroxyamino)pyrimidin-2-one], the tissue distribution [2] is reported as “well distributed into all tissues tested”, the bioavailability (in vivo) is reported as 28% and the half-life [3] is reported as 2.2 h. For the same compound, the EC50 (EEE virus) was 1080 nM, the “Bioavailability (versus I.P. delivery)” value ([4]; 30 mg/kg PO dosing) was 65% and the “Bioavailability (versus I.P. delivery)” value ([4]; 100 and 300 mg/kg PO dosing) was 39-46%. It also gave a Cmax ([4]; female, DBA-1J, mouse, plasma, PO dosing 30 mg/kg) of 3 ng/mL, a Cmax ([4]; female, DBA-1J, mouse, plasma, PO dosing 100 mg/kg) of 7.7 ng/mL and a Cmax ([4]; female, DBA-1J, mouse, plasma, PO dosing 300 mg/kg) of 11.7 ng/mL. It also gave a half-life ([4]; female, DBA-1J, mouse, plasma, after PO dosing, read-out: plasma T1/2) of 4.1 to 4.7 h, a Tmax ([4]; female, DBA-1J, mouse, plasma, after oral dosing) of 0.25 to 0.5 h and a concentration at 24 h ([4]; female, DBA-1J, mouse, plasma, after 100 mg/kg dose) of roughly 100 nM. The concentration at 24 h ([4]; female, DBA-1J, mouse, plasma, after 300 mg/kg P.O. dose) was roughly 400 nM, the antiviral activity (pestivirus, hepacivirus) was “antipestivirus and antihepacivirus activities” and the EC50 (VEE virus) was 1000 nM. The selectivity index (CEM cells) was 8, the “body weight effect at highest dose tested” value ([5]; 100 mg/kg, 6 day q.d. IP, reversed on cessation of dosing) was “weight loss was observed” and the “NOEL (NO Effect Level)” value ([5]; 6 day q.d. intraperitoneal (IP) injections) was 33 mg/kg. The EC50 (WEE virus) was 1360 nM, the EC50 (CHIK virus) was 1280 nM and the EC50 (Ross River virus) was 2450 nM. For the same compound, the selectivity index (Huh7 (liver) cells) was 232.
O=c1nc(NO)ccn1[C@@H]1O[C@H](CO)[C@H](O)C1O (stereo partly shown) [drawing 76] showed a CC50 [1] greater than 100 µg/mL, an EC50 (Norovirus GT1) greater than 100 µg/mL and an EC50 (SARS Coronavirus Orbani) of less than 0.1 µg/mL. For the same compound, the CC50 (in vitro) was 36 µg/mL (≈ 139 µM).
Compound CCCCCCCOC(=O)ONc1ccn([C@@H]2O[C@H](CO)[C@H](O)C2O)c(=O)n1 (stereo partly shown) [drawing 78] has an EC50 (SARS Coronavirus Orbani) of 0.28 µg/mL (≈ 0.698 µM) and a CC50 (in vitro) greater than 100 µg/mL.
For O=c1nc(NO)ccn1[C@@H]1O[C@H](CO)[C@H](O)C1O (stereo partly shown) [drawing 81], the inhibition at 10 µM (Chikungunya virus) was 80%, the inhibition at 50 µM (Chikungunya virus) was 100% and the “Cell Viability 10 uM” value (U2OS cell line) was 97% ± 5% (n = 4). The “Cell Viability 50 uM” value (U2OS cell line) was 79% ± 10% (n = 4).
With CCCCCCCOC(=O)ONc1ccn([C@@H]2O[C@H](CO)[C@H](O)C2O)c(=O)n1 (stereo partly shown) [drawing 82] the inhibition at 10 µM (Chikungunya virus) was 72%, the inhibition at 50 µM (Chikungunya virus) was 98% and the “Cell Viability 10 uM” value (U2OS cell line) was 93% ± 4% (n = 4). For the same compound, the “Cell Viability 50 uM” value (U2OS cell line) was 78% ± 8% (n = 4).
For CC(C)OC(=O)[C@H](C)NP(=O)(OC[C@H]1O[C@@H](n2ccc(NO)nc2=O)C(O)[C@H]1O)Oc1ccccc1 (stereo partly shown) [drawing 83], the inhibition at 10 µM (Chikungunya virus) was 3%, the inhibition at 50 µM (Chikungunya virus) was 36% and the “Cell Viability 10 uM” value (U2OS cell line) was 99% ± 6% (n = 4). The “Cell Viability 50 uM” value (U2OS cell line) was 99% ± 8% (n = 4).
In the case of O=c1nc(NO)c(F)cn1[C@@H]1O[C@H](CO)[C@H](O)C1O (stereo partly shown) [drawing 84], the inhibition at 10 µM (Chikungunya virus) is reported as 8%, the inhibition at 50 µM (Chikungunya virus) is reported as 51% and the “Cell Viability 10 uM” value (U2OS cell line) is reported as 81% ± 4% (n = 4). For the same compound, the “Cell Viability 50 uM” value (U2OS cell line) was 53% ± 2% (n = 4).
For CCCCCCCNC(=O)ONc1ccn([C@@H]2O[C@H](CO)[C@H](O)C2O)c(=O)n1 (stereo partly shown) [drawing 85], the inhibition at 10 µM (Chikungunya virus) was 14%, the inhibition at 50 µM (Chikungunya virus) was 70% and the “Cell Viability 10 uM” value (U2OS cell line) was 105% ± 2% (n = 4). For the same compound, the “Cell Viability 50 uM” value (U2OS cell line) was 96% ± 11% (n = 4).
Compound O=c1nc(NO)ccn1[C@@H]1O[C@H](CO)[C@H](O)C1O (stereo partly shown) [drawing 86] has an EC50 (VEEV) of 1240 nM, an inhibition at 10 µM (VEEV; read-out: Viral Inh. 10 uM) of 100% and an inhibition at 50 µM (VEEV; read-out: Viral Inh. 50 uM) of 100%. For the same compound, the “Cell Viability 10 uM” value (HeLa; 10 uM) was 116% ± 24% (n = 4) and the “Cell Viability 50 uM” value (HeLa; 50 uM) was 61% ± 8% (n = 4).
